What all share (type): in vivo, mouse
A short description of series [1]: Plasma concentration of compound in DIO mice over 24 hours. Conditions: 30 mg/kg p.o. + sitagliptin 10 mg/kg, 6, 12, 18, 24 h. The method, then:
Plasma Concentration of Compound in Mice
In these studies, the plasma concentration of the compounds of the present invention was measured in DIO mice as well as lean C57BL/6N mice.
In the first study, (data represented in FIG. 10), plasma concentration levels were measured over a 24 hour time period in DIO mice. Following the treatment with the compound, the blood was collected via cardiac puncture at 6, 12, 18, and 24 hours. The blood samples (>250 μL) were placed in an EDTA K^2+ tube and plasma was processed for analytical chemistry and analyzed by LCMS/MS method as described in Example 81. FIG. 10 depicts the plasma concentrations of Compound 268 after oral administration at 30 mg/kg in combination with 10° mg/kg sitagliptin. The plasma concentrations of Compound 268 were below 10 nM at every tested time points.

A short description of series [2]: Plasma concentrations after chronic dosing (5 days) in DIO mice. Conditions: after second and tenth dose, 0-12 h. As to the method: Plasma Concentrations after Chronic Dosing of Compound
In the study, the plasma level of compounds of the present invention (i.e., Compound 268) was monitored at day 1 and day 5. The same animal protocol as described in Examples 87 and 88 was utilized.
FIG. 14 depicts the plasma concentration of Compound 268 at 0, 3, 6, 9, and 12 hours after the second and at 3, 6, 9, and 12 hours after the tenth dose. […] No significant increases were observed over time.

A short description of series [3]: Bile weight in lean C57BL/6N mice after OGTT. Particulars: 30 mg/kg + sitagliptin 3 mg/kg p.o., 6 h, versus sitagliptin alone. As to the method: In addition, bile weight was determined in the OGTT study on lean mice described in Example 84 above. At the end of that study, bile was removed from the gallbladder and weighed to approximate volume of bile contained within the gallbladder.
FIG. 7 depicts bile weight in DIO mice at 6, 12, 18, and 24 hours after oral administration of 10 mg/kg sitagliptin alone or 10 mg/kg sitagliptin+30 mg/kg Compound 268. FIG. 8 depicts the comparison in bile weight between sitagliptin (3 mg/kg, p.o.) and Compound 268 (30 mg/kg, p.o.)+sitagliptin (3 mg/kg, p.o.) following an OGTT assay in lean C57BL/6N mice, 6 hours after treatment. FIG. 9 illustrates plasma GLP-1 levels from the DIO mice at the same time points.

Series [4] deals with GLP-1. In words: GLP-1 levels after chronic dosing (5 days) in DIO mice. Particulars: 30 mg/kg + sitagliptin 10 mg/kg p.o., after dose 2 and dose 10 (5 days), versus sitagliptin alone. As to the method: GLP-1 Levels after Chronic Dosing of Compounds
The chronic dosing of compounds of the present invention was evaluated to determine if they produce sustained GLP-1 levels.
Male DIO mice were received at 12 weeks of age (from Taconic), and were single-housed at the testing facility and acclimated for at least 2 weeks. The mice were provided a high fat diet [Research Diet D12492 (60% Fat kcal)] while in the testing facility. Before the study initiation, the animals were randomized into 18 experimental groups by body weight. The first 10 groups were administered with sitagliptin alone at 10 mg/kg or sitagliptin (10 mg/kg)+Compound 268 at 30 mg/kg by oral gavage and then again 14 hours later (except for one sitagliptin treated and one sitagliptin+Compound 268 treated groups that were euthanized 14° hours after the first dose). The remaining mice were euthanized at 3, 6, or 9 hours after the second dose to collect blood for GLP-1 measurements and bile weights. The remaining 8 groups were administered by oral gavage with sitagliptin alone at 10 mg/kg or sitagliptin (10 mg/kg)+Compound 268 at 30 mg/kg every 10 or 14 hours for 5 days. […] The active form of GLP-1 [GLP-1 (7-36) amide] was analyzed using Meso Scale Discovery System according to the manufacturer's instruction. […]

Series [5] relates to GLP-1. Put plainly: GLP-1 levels after 6 weeks of dosing in DIO mice. Conditions: 30 mg/kg + sitagliptin 10 mg/kg BID, 6 h after final dose, versus sitagliptin alone. The text has this: In the next series of studies (Examples 93-99), Male DIO mice were received at 12 weeks of age (from Taconic), and were single-housed at the testing facility and acclimated for at least 2 weeks. The mice were provided a high fat diet [Research Diet D12492 (60% Fat kcal)] while in the testing facility. Before the study initiation, the animals were randomized into 5 experimental groups by body weight. The vehicle group contained only 0.5% carboxymethylcellulose (medium viscosity)+0.25% Tween-80. The second group contained 10 mg/kg of the DPP-IV inhibitor Sitagliptin while the third group contained 30 mg/kg Compound 268. The fourth group contained the combination of 10 mg/kg Sitagliptin and 30 mg/kg Compound 268. The fifth group was the positive control for weight loss, Rimonabant. All mice were dosed BID at approximately 6:00 am and again at approximately 4:00 pm. The positive control rimonabant was administered at a dose of 10 mg/kg in the afternoon and the morning dosing was vehicle (no compound). […]
Compounds of the present invention were dosed for multiple weeks and were evaluated to determine if they produce sustained GLP-1 levels.
In this example, the protocol from Example 93 was utilized. […] The active form of GLP-1 [GLP-1 (7-36) amide] was analyzed using Meso Scale Discovery System according to the manufacturer's directions (item number K150HYC). […]

One molecule from patent US10654834B2 (Venenum Biodesign, LLC, priority 2016, dated 2020) can be followed below.

Regarding `N#Cc1ccc(CCNC(=O)[C@@H]2CCN2c2cc(N3CCC(CCNC(=O)NCCC(=O)O)CC3)nc(C(F)(F)F)n2)cc1` [Compound 268, (S)-3-(3-(2-(1-(6-(2-((4-cyanophenethyl)carbamoyl)azetidin-1-yl)-2-(trifluoromethyl)pyrimidin-4-yl)piperidin-4-yl)ethyl)ureido)propanoic acid], the “plasma concentration of compound” value in series [1] is reported as “below 10 nM”. For the same molecule, in series [2], the “plasma level of compound after chronic dosing” value is reported as “maintained at a low concentration level”. Further, in series [3], the bile weight entry is given as “no significant differences in bile weight”. The “plasma GLP-1 level after chronic dosing” value with GLP-1 [4] is listed as “significantly increased level of GLP-1”. In addition, the “plasma GLP-1 level after 6 weeks of dosing” value in the series on GLP-1 [5] is “significantly increased level of GLP-1”.
